Results as given in PMC12022980, “Rational Design of PROTAC Linkers Featuring Ferrocene as a Molecular Hinge to Enable Dynamic Conformational Changes” (Journal of the American Chemical Society, 2025).
In brackets after ≈: the same amount, converted by molar mass. Where two headings read alike, the source gives them in different places.

Columns and labels:
[1] = Variable temperature NMR (vt-NMR) of amide protons in CDCl3; assay type: physicochemical; settings: CDCl3, 298–328 K
Text: With this premise, we performed NMR studies to quantify the HBD solvent exposure of the amide protons using the HBD Acidity NMR score (ANMR)[47] and variable temperature studies (vt-NMR).[48] To note, although vt-NMR has originally been developed and applied to the study of peptides,[49] it is, together with the ANMR value, a well-established method for studying the intramolecular hydrogen bonding (IMHB) patterns in systems such as PROTACs[10],[12],[18],[26] as well as in ferrocene structures.[29],[50]−[53] […]
Standard NMR experiments were performed at 298 K, while variable-temperature NMR experiments recorded spectra across a temperature range from 298 K to 328 K allowing a sufficient temperature equilibration time (10–15 min) before signal acquisition. All NOESY spectra for conformational analysis as well as the assignment spectra in methanol-d 4 were recorded on a 500 MHz Bruker Avance III equipped with a 5 mm QCI cryogenic probe. NOESY spectra were obtained from a sample at 1.25 mM in CDCl3 and 1.25 mM in methanol-d4, recorded at 298 K, using 16 transients, 1024 points in the direct dimension and 512 points in the indirect dimension, a relaxation delay of 1.5 s, and a mixing time of 700 ms. All other spectra used for signal assignment in CDCl3 were recorded on 500 MHz Bruker Avance NEO with a BBFO SmartProbe. […]

[2] = Kinetic solubility in phosphate buffer and FeSSIF; assay type: physicochemical; settings: kinetic from iPrOH stock
Procedure: Solubility in Phosphate Buffer and Fed State Simulated Intestinal Fluid (FeSSIF) 8 µL of reference or test compound stock solution (10 mM in iPrOH) was added to 792 μL of 100 mM phosphate buffer (pH 7.4) or FeSSIF (pH 5.8). The resulting mixture was shaken for 1 h (1000 rpm) at room temperature and then centrifuged for 10 min (12 000 rpm) to remove the undissolved particles. The supernatant was collected and diluted 10 times and 100 times separately with 100 mM phosphate buffer or FeSSIF. Five microliters of the supernatant samples (no diluted, 10 times diluted, 100 times diluted) were mixed with 95 μL of acetonitrile (containing internal standard) separately before injecting into LC-MS/MS for analysis. […]

[3] = biological target: T1, CRBN (Homo sapiens, UniProt Q96SW2); set-up: method as in PMID 30826187; settings: cited from earlier work
T1 construct: endogenous in cells; host or cells: HEK293 (ATCC)

[4] = biological target: T2, VHL (Homo sapiens, UniProt P40337); assay: NanoBRET VHL target engagement, live-cell mode; assay type: cell-based; settings: for IC50: HEK293 transfected with VHL-NanoLuc, live cells, tracer 1 μM
T2 construct: host or cells: HEK293, transient transfection
Text: (§1) To this end, we assessed the PROTAC cellular permeability by evaluating VHL target engagement using the Promega NanoBRET TE Intracellular E3 Ligase.[62] Current PROTAC permeability assays use artificial systems like PAMPA and Caco-2, designed for small molecules but not always effective for PROTACs due to their low permeability, high molecular weight and assay caveats (i.e., unspecific binding and low recovery).[63],[64] The NanoBRET assay is a high-throughput method validated for measuring E3 ligase engagement in live and permeabilised cells. The assay allows to rank PROTAC intracellular availability through competitive probe displacement and offers a simple workflow for prioritising compounds based on properties associated with permeability. […] Specifically, in the live-cell mode, the assay measures the apparent cellular affinity, where the plasma membrane is intact and can impede the compound’s access to its target. In the permeabilised-cell mode, the barrier posed by the plasma membrane is removed and the intrinsic affinity of the compound for target is measured. […] The ratio of potencies between live-cell and permeabilised-cell modes, referred to as the relative-binding affinity (RBA) value increases as intracellular availability decreases and is thus a metric for assessing a PROTAC̀s cellular availability. […]

[5] = biological target: T2, VHL; assay: NanoBRET VHL target engagement, permeabilised-cell mode; assay type: cell-based; settings: HEK293 transfected with VHL-NanoLuc, tracer 0.5 μM
Text: as §1

[6] = biological target: T3, pVHL30 (Homo sapiens, UniProt P40337); set-up: method as in PMID 29018234; settings: cited from earlier work
T3 construct: endogenous in cells; host or cells: HEK293 (ATCC)

[7] = biological target: T3, pVHL30; assay: Western blot VHL degradation in HEK293 cells; assay type: cell-based
Procedure: To further elucidate the mode of action of FerroTAC AS2, we explored its dependency on ubiquitination and proteasome activity.
A) Representative immunoblots of VHL protein levels after treatment of
HEK293 cells. Cells were treated with 0.1% EtOH, 0.1 μM or 1 μM of the indicated compounds for 4 and 24 h.
Controls were included at 1 μM for 24 h. Mean values of two biologically independent experiments.
Representative time-course immunoblots of VHL protein levels after treatment of HEK293 cells treated with
Cells were treated with 0.1% EtOH and controls at 1 μM. Mean values of two biologically
independent experiments. Apparent half-life values (t 1/2) were estimated by fitting band intensity against time
using a single-phase exponential decay model. C) Representative immunoblots of VHL protein levels in
neddylation inhibitor MLN4924 (3 μM) and VHL inhibitor VH032 (50 μM). The amount of EtOH (0.1%) and
DMSO (0.5%) is fixed in all samples. Band quantification was performed using ImageJ software and reported
(in black and black) as relative amount as ratio of each protein band relative to the lane’s loading control
(tubulin). VHL/tubulin protein ratios were normalised to the average of the controls (100%).
HEK293 and HCT116 cell lines, purchased from ATCC, were cultured in Dulbecco’s modified Eagle’s medium (DMEM, Gibco) supplemented with 10% fetal bovine serum (FBS, Gibco), L-glutamine (2 mM, Gibco) and 100 μg/mL of penicillin/streptomycin (Gibco). All cell lines were maintained in a humidified incubator at 37 °C and 5% CO2 for no more than 30 passages. Cells were routinely tested for mycoplasma contamination.
Cell Treatment for Immunoblotting
depending on the experimental setup. Cells were treated in fresh medium with the indicated compounds under indicated conditions with a final EtOH or iPrOH concentration of 0.01% (v/v) to 0.1% (v/v) depending on the experimental setup. […]
stored at −80°C. Protein concentration was determined by bicinchoninic acid (BCA) assay (Thermo Fisher […]
Quantitative Immunoblotting […]

[8] = FeSSIF pH 5.8, read-out: kinetic solubility FeSSIF (pH 5.8)
[9] = phosphate buffer, aqueous buffer, PBS pH 7.4, read-out: kinetic solubility PBS (pH 7.4)

T2 sequence (P40337 whole entry): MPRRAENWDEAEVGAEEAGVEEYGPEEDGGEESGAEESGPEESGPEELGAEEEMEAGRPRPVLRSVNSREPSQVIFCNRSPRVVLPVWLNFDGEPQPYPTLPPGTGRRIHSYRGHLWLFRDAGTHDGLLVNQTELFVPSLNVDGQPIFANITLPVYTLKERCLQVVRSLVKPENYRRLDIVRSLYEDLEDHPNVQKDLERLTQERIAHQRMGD
T3 sequence (P40337 whole entry): as above
T1 sequence (Q96SW2 whole entry): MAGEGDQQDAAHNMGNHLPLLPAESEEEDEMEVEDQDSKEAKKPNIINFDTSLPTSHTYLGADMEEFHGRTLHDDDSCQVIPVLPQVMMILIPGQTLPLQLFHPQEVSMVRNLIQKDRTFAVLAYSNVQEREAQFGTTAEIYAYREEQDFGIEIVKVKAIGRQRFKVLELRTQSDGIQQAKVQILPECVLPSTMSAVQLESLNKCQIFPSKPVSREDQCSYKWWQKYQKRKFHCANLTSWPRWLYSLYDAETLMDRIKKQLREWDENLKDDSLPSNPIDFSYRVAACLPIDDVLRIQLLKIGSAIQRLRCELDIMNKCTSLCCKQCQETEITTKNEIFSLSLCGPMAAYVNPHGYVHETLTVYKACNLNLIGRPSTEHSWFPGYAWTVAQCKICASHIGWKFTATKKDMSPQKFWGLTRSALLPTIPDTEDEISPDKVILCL

Row | SMILES | temperature coefficient Δδ/ΔT N(1)-H [1] [ppb/K] | temperature coefficient Δδ/ΔT N(2)-H [1] [ppb/K] | solubility kinetic at 1 h [2, 8] [µM] | solubility kinetic at 1 h [2, 9] [µM] | DC50 [3] [nM] | AI (availability index = RBAPROTAC ÷ RBAVH298) [4] | RBA (relative binding affinity = IC50live ÷ IC50perm) [4] | fold lower potency in live-cell vs permeabilised-cell assay [4] [fold] | IC50 [4] [nM] | IC50 [5] [nM] | t1/2 (pVHL30 degradation half-life) ([6]; 1 μM, calculated from ref 38) [min] | DC50 ([6]; reference value, CM11 only run at 1 μM here, read-out: DC50 ± S.D (pVHL30)) [nM] | Dmax at 1 µM ([7]; HEK293, 4 h, read-out: Dmax at 1 μM (pVHL30)) [%] | Dmax at 1 µM ([7]; HEK293, 24 h, read-out: maximal degradation (Dmax) of pVHL30) [%]
1 | Cc1ncsc1-c1ccc(CNC(=O)[C@@H]2C[C@@H](O)CN2C(=O)[C@@H](NC(=O)CCCCCOCCOCCCCCC(=O)Nc2cccc3c2C(=O)N(C2CCC(=O)NC2=O)C3=O)C(C)(C)C)cc1 (some centres unmarked) [14a] | −3.52 | −1.57 | 59.5 (≈ 57 µg/mL) | 8.7 (≈ 8.34 µg/mL) | 200 | 4.2 | 4.4 | 4 | 1330 | 300 | – | – | – | –
2 | Cc1ncsc1-c1ccc(CNC(=O)[C@@H]2C[C@@H](O)CN2C(=O)[C@@H](NC(=O)COCCOCCOCCOCCOCCOCC(=O)N[C@H](C(=O)N2C[C@H](O)C[C@H]2C(=O)NCc2ccc(-c3scnc3C)cc2)C(C)(C)C)C(C)(C)C)cc1 [CM11] | – | – | 38.6 (≈ 45.5 µg/mL) | 58.2 (≈ 68.6 µg/mL) | – | 1.4 | 1.4 | – | 450 | 300 | 85.1 | < 100 | 98 | 100
